Results on one compound are retold here after patent publication US12622886B2, “Compositions comprising amino acids for prevention and/or treatment of cancer” (Professional Dietetics S.p.A., priority 2020, dated 2026).

The assay relates to MCF7 breast cancer cells. As to the kind of experiment: MCF7 proliferation (acid phosphatase assay and Trypan blue exclusion). Format: cell-based, human. Particulars: 1% α5 for 48 h and 1 μM DOX for 16 h. Here is the method:
MCF-7 cells were cultured in DMEM as above and treated with 1% α5 composition for 48 h and 1 μM doxorubicin (DOX; Sigma-Aldrich, Milan, Italy) for 16 h (FIG. 7).
To quantify MCF7 cell growth, acid phosphatase assay was used as described [Yang T T et al. 1996 Anal Biochem. 241(1):103-8]. Briefly, MCF7 cells were placed in 96-well plates at 5,000 to 20,000 cells per well density and treated with 1% α5 (for 48 h) and 1 μM DOX (for 16 h). Culture medium was removed and each well washed once with phosphate-buffered saline (PBS, pH 7.2), and added with 100 μl buffer containing 0.1 M sodium acetate (pH 5.0), 0.1% Triton X-100, and 5 mM p-nitrophenyl phosphate (pNPP). Then, plates were placed in a 37° C. incubator for 2 h. The reaction was stopped with the addition of 10 μl 1 N NaOH, and color development was assessed at 405 nm. Non-enzymatic pNPP hydrolysis was measured in wells without cells.

For `COc1cccc2c1C(=O)c1c(O)c3c(c(O)c1C2=O)C[C@@](O)(C(=O)CO)C[C@@H]3O[C@H]1C[C@H](N)[C@H](O)[C@H](C)O1` [DOX, doxorubicin], the “anti-proliferative effect of DOX together with the α5 composition” value is on record as “completely unaffected”.
